Earlier results on one compound are cited in US20200390702A1, “LIPOSOMAL TAXANES FOR TREATMENT OF SCLC” (Plus Therapeutics, Inc., priority 2017, published 2020).

The structures appear in SMILES notation. Read-outs that look alike come from different tables or passages of the source.

The subject of this data set is SCLC. The note with it: intravenous.

On to `CC[C@@]1(O)C(=O)OCc2c1cc1n(c2=O)Cc2cc3c(CN(C)C)c(O)ccc3nc2-1` [Topotecan], for which the response rate is, setting by setting: (chemotherapy-refractory relapsed cases) 4.0%; (chemotherapy-sensitive relapsed cases) 20.4%.
